Measured values published in patent US11213055B2, “Fermentate compositions and methods of making and using the same” (Third Wave Bioactives, LLC, priority 2017, dated 2022).
Values joined by “and” are separate entries in the source; they are usually repeats but may differ in a detail not shown here. Identical values can stand only once.

Columns and labels:
[1] = tested on: Zygosaccharomyces rouxii strain, Y-229, and Torulaspora delbruckii strain, Y-866; experiment: yeast challenge in dark chocolate sauce, yeast enumeration; type: cell-based
Method: (§1) The treatments were prepared by dissolving the spray dried fermentate in 15 ml sterile water and then mixed into the sauce using sterile hand whisks. One of the L. reuteri fermentate treatments was incubated for 30 minutes in a water bath set at 60° C. prior to addition to the chocolate sauce to determine how heat would affect the treatment since traditional manufacturing of the chocolate sauce includes a heating step.
(§2) All jars were then inoculated with a dual yeast challenge of Zygosaccharomyces rouxii strain, Y-229, and Torulaspora delbruckii strain, Y-866, which were both obtained from the ARS NRRL Culture Collection. The yeast strains were grown in Potato Dextrose broth at 32° C. overnight, then diluted in sterile water to approximately 2.0×10^5 CFU/ml. The two strains were then combined and 5 ml of the combination culture was added to each jar to provide a challenge dose of approximately 1.0×10^3 CFU/ml.
(§3) A 10-gram sample was removed from each jar immediately after challenge inoculation to analyze the pH and the initial yeast count in duplicate on Potato Dextrose Agar acidified with 10% Tartaric Acid (PDA4-TA) as well as the total aerobic plate count (APC) in duplicate on Tryptic Soy Agar (TSA). Once solidified, the PDA+TA plates were incubated at 28° C. for 72 hours and the TSA plates were incubated at 32° C. for 48 hours, then counted to determine CFU/g. The jars were kept at room temperature (˜20-22° C.) in a dark cabinet for the first 21 days, then moved to an incubator set at 28° C. for the duration of the study. On days 4, 7, 11, 14, 18, 21, 28, 35, 49, 56, 63, 94, 109, and 124, a 10-gram sample was removed from each jar to analyze the change in pH, as well as the yeast and APC levels in duplicate as described above.

[2] = tested on: total aerobic plate count (APC); experiment: total aerobic plate count (APC) in dark chocolate sauce; type: cell-based
Method: as §1, §2, §3

## C/C=C/C=C/C(=O)[O-].[K+] [Potassium sorbate]
[1]; dark chocolate sauce
  day at which resurgence of yeast started: 49 days
  day at which yeast levels were no longer detectable (<10 CFU/g): 35 days
[1]; day 0
  Enumeration of yeast in dark chocolate sauce, AVG: 2.00E+03 CFU/g
  Enumeration of yeast in dark chocolate sauce, duplicate counts: 1.73E+03 CFU/g and 2.27E+03 CFU/g
[1]; day 4
  Enumeration of yeast in dark chocolate sauce, AVG: 1.23E+03 CFU/g
  Enumeration of yeast in dark chocolate sauce, duplicate counts: 9.49E+02 CFU/g and 1.51E+03 CFU/g
[1]; day 7
  Enumeration of yeast in dark chocolate sauce, AVG: 9.08E+02 CFU/g
  Enumeration of yeast in dark chocolate sauce, duplicate counts: 6.43E+02 CFU/g and 1.17E+03 CFU/g
[1]; day 11
  Enumeration of yeast in dark chocolate sauce, AVG: 1.02E+03 CFU/g
  Enumeration of yeast in dark chocolate sauce, duplicate counts: 1.10E+03 CFU/g and 9.43E+02 CFU/g
[1]; day 14
  Enumeration of yeast in dark chocolate sauce, AVG: 5.48E-02 CFU/g
  Enumeration of yeast in dark chocolate sauce, duplicate counts: 4.99E+02 CFU/g and 5.98E+02 CFU/g
[1]; day 18
  Enumeration of yeast in dark chocolate sauce, AVG: 3.30E+02 CFU/g
[1]; day 21
  Enumeration of yeast in dark chocolate sauce, AVG: 2.06E+02 CFU/g
[1]; day 28
  Enumeration of yeast in dark chocolate sauce, AVG: 1.26E+02 CFU/g
  Enumeration of yeast in dark chocolate sauce, duplicate counts: 1.51E+02 CFU/g and 1.00E+02 CFU/g
[1]; day 35
  Enumeration of yeast in dark chocolate sauce, AVG: <10 CFU/g
  Enumeration of yeast in dark chocolate sauce, duplicate counts: <10 CFU/g
[1]; day 49
  Enumeration of yeast in dark chocolate sauce, AVG: 1.53E+01 CFU/g
[1]; day 56
  Enumeration of yeast in dark chocolate sauce, AVG: <10 CFU/g
  Enumeration of yeast in dark chocolate sauce, duplicate counts: <10 CFU/g
[1]; day 63
  Enumeration of yeast in dark chocolate sauce, AVG: <10 CFU/g
  Enumeration of yeast in dark chocolate sauce, duplicate counts: <10 CFU/g
[1]; day 94
  Enumeration of yeast in dark chocolate sauce, AVG: 3.71E+02 CFU/g
  Enumeration of yeast in dark chocolate sauce, duplicate counts: 3.07E+02 CFU/g and 4.35E+02 CFU/g
[1]; day 109
  Enumeration of yeast in dark chocolate sauce, AVG: 1.50E+02 CFU/g
[1]; day 124
  Enumeration of yeast in dark chocolate sauce, AVG: 1.21E+04 CFU/g
  Enumeration of yeast in dark chocolate sauce, duplicate counts: 1.25E+04 CFU/g and 1.17E+04 CFU/g
[2]; day 0
  APC, CFU/g (duplicate counts): 2.83E+03 CFU/g and 2.94E+03 CFU/g
[2]; day 0, average of duplicate counts
  APC, AVG: 2.89E+03 CFU/g
[2]; day 4
  APC, CFU/g (duplicate counts): 2.57E+03 CFU/g and 2.96E+03 CFU/g
[2]; day 4, average of duplicate counts
  APC, AVG: 2.77E+03 CFU/g
[2]; day 7
  APC, CFU/g (duplicate counts): 2.47E+03 CFU/g and 3.12E+03 CFU/g
[2]; day 7, average of duplicate counts
  APC, AVG: 2.79E+03 CFU/g
[2]; day 11
  APC, CFU/g (duplicate counts): 2.24E+03 CFU/g and 2.49E+03 CFU/g
[2]; day 11, average of duplicate counts
  APC, AVG: 2.36E+03 CFU/g
[2]; day 14
  APC, CFU/g (duplicate counts): 1.59E+03 CFU/g and 2.13E+03 CFU/g
[2]; day 14, average of duplicate counts
  APC, AVG: 1.86E+03 CFU/g
[2]; day 18
  APC, CFU/g (duplicate counts): 1.44E+03 CFU/g and 1.56E+03 CFU/g
[2]; day 18, average of duplicate counts
  APC, AVG: 1.50E+03 CFU/g
[2]; day 21
  APC, CFU/g (duplicate counts): 1.13E+03 CFU/g and 1.31E+03 CFU/g
[2]; day 21, average of duplicate counts
  APC, AVG: 1.22E+03 CFU/g
[2]; day 28
  APC, CFU/g (duplicate counts): 8.53E+02 CFU/g and 9.84E+02 CFU/g
[2]; day 28, average of duplicate counts
  APC, AVG: 9.19E+02 CFU/g
[2]; day 35
  APC, CFU/g (duplicate counts): 7.22E+02 CFU/g and 6.82E+02 CFU/g
[2]; day 35, average of duplicate counts
  APC, AVG: 7.02E+02 CFU/g
[2]; day 49
  APC, CFU/g (duplicate counts): 6.85E+02 CFU/g and 6.14E+02 CFU/g
[2]; day 49, average of duplicate counts
  APC, AVG: 6.50E+02 CFU/g
[2]; day 56
  APC, CFU/g (duplicate counts): 5.72E+02 CFU/g and 3.71E+02 CFU/g
[2]; day 56, average of duplicate counts
  APC, AVG: 4.71E+02 CFU/g
[2]; day 63
  APC, CFU/g (duplicate counts): 5.89E+02 CFU/g and 6.79E+02 CFU/g
[2]; day 63, average of duplicate counts
  APC, AVG: 6.34E+02 CFU/g
[2]; day 94
  APC, CFU/g (duplicate counts): 5.54E+02 CFU/g and 7.62E+02 CFU/g
[2]; day 94, average of duplicate counts
  APC, AVG: 6.58E+02 CFU/g
[2]; day 109
  APC, CFU/g (duplicate counts): 6.36E+02 CFU/g and 5.52E+02 CFU/g
[2]; day 109, average of duplicate counts
  APC, AVG: 5.94E+02 CFU/g
[2]; day 124
  APC, CFU/g (duplicate counts): 2.52E+02 CFU/g and 3.78E+02 CFU/g
[2]; day 124, average of duplicate counts
  APC, AVG: 3.15E+02 CFU/g
